How the values were obtained:
corn [1] = test: Test A postemergence; assay type: in vivo, Zea mays
In short: (§1)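 Scoring: eye-based comparison with untreated controls, 0 for no effect through 100 for complete control, at about day 10. Treatments: directed soil spray preemergence; foliar spray postemergence on 2–10 cm plants at the one- to two-leaf stage. Medium: loam soil with sand.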

barnyardgrass [2] = test: Test A preemergence; assay type: in vivo, Echinochloa crus-galli; settings: for Barnyardgrass plant response rating: 500 g ai/ha
In short: as §1

Heteranthera limosa = test: Test B flooded paddy test; assay type: in vivo; settings: Flood, 250 g ai/ha; 0 to 100 scale where 0 is no effect and 100 is complete control
In short: (§2)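 Evaluation is visual, against untreated controls, 13 to 15 days after treatment. Before treatment, plants reached the 2-leaf stage; pots were then flooded 3 cm deep, compound was added to the water, and that level was maintained. Ratings run 0 to 100, with 100 meaning complete control.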

large (Lg) crabgrass [3] = test: Test A postemergence; assay type: in vivo, Digitaria sanguinalis
In short: as §1

giant foxtail [4] = test: Test A postemergence; assay type: in vivo, Setaria faberii
In short: as §1

rice = test: Test B flooded paddy test; assay type: in vivo, Oryza sativa; settings: Flood, 250 g ai/ha; 0 to 100 scale where 0 is no effect and 100 is complete control
In short: as §2

pigweed [5] = test: Test A postemergence; assay type: in vivo, Amaranthus retroflexus
In short: as §1

wheat [6] = test: Test A preemergence; assay type: in vivo, Triticum aestivum
In short: as §1

pigweed [7] = test: Test A preemergence; assay type: in vivo, Amaranthus retroflexus
In short: as §1

velvetleaf [8] = test: Test A postemergence; assay type: in vivo, Abutilon theophrasti
In short: as §1

barnyardgrass [9] = test: Test A postemergence; assay type: in vivo, Echinochloa crus-galli
In short: as §1

corn [10] = test: Test A preemergence; assay type: in vivo, Zea mays; settings: for Corn plant response rating: 500 g ai/ha
In short: as §1

velvetleaf [11] = test: Test A preemergence; assay type: in vivo, Abutilon theophrasti
In short: as §1

giant foxtail [12] = test: Test A preemergence; assay type: in vivo, Setaria faberii
In short: as §1

large (Lg) crabgrass [13] = test: Test A preemergence; assay type: in vivo, Digitaria sanguinalis; settings: for Crabgrass, Large plant response rating: 500 g ai/ha
In short: as §1

sedge, umbrella = test: Test B flooded paddy test; assay type: in vivo, Cyperus difformis; settings: Flood, 250 g ai/ha; 0 to 100 scale where 0 is no effect and 100 is complete control
In short: as §2

barnyardgrass [14] = test: Test B flooded paddy test; assay type: in vivo, Echinochloa crus-galli; settings: Flood, 250 g ai/ha; 0 to 100 scale where 0 is no effect and 100 is complete control
In short: as §2

morningglory [15] = test: Test A preemergence; assay type: in vivo, Ipomoea spp.
In short: as §1

morningglory [16] = test: Test A postemergence; assay type: in vivo, Ipomoea spp.
In short: as §1

wheat [17] = test: Test A postemergence; assay type: in vivo, Triticum aestivum
In short: as §1

[18] = 125 g ai/ha, 0 to 100 scale where 0 is no effect and 100 is complete control
[19] = 500 g ai/ha, 0 to 100 scale where 0 is no effect and 100 is complete control
[20] = 0 to 100 scale, 0 no effect, 100 complete control, approx. 10 days
[21] = 500 g ai/ha, 0 to 100 scale, 0 no effect, 100 complete control, approx. 10 days
[22] = 0 to 100 scale where 0 is no effect and 100 is complete control
[23] = 125 g ai/ha, 0 to 100 scale, 0 no effect, 100 complete control
[24] = 1000 g ai/ha, 0 to 100 scale, 0 no effect, 100 complete control
[25] = 1000 g ai/ha, 0 to 100 scale, 0 no effect, 100 complete control, approx. 10 days

## CC(=O)c1cccc(Oc2ncc(Cl)cn2)c1-n1cc(Br)cn1 [Compound 96]
Corn [1]; [18]
  Plant response rating, Corn: 0
Corn [1]; [19]
  Plant response rating, Corn: 10
Barnyardgrass [2]; [18]
  Plant response rating, Barnyardgrass: 0
Barnyardgrass [2]; [20]
  Barnyardgrass plant response rating: 30
Heteranthera limosa
  Plant response rating, Ducksalad: 0
Large (Lg) crabgrass [3]; [18]
  Plant response rating, Crabgrass, Large: 10
Large (Lg) crabgrass [3]; [19]
  Plant response rating, Crabgrass, Large: 30
Giant foxtail [4]; [18]
  Plant response rating, Foxtail, Giant: 0
Giant foxtail [4]; [19]
  Plant response rating, Foxtail, Giant: 20
rice
  Plant response rating, Rice: 0
Pigweed [5]; [18]
  Plant response rating, Pigweed: 10
Pigweed [5]; [19]
  Plant response rating, Pigweed: 40
Wheat [6]; [18]
  Plant response rating, Wheat: 0
Pigweed [7]; [18]
  Plant response rating, Pigweed: 50
Pigweed [7]; [21]
  Pigweed plant response rating: 100
Velvetleaf [8]; [18]
  Plant response rating, Velvetleaf: 0
Velvetleaf [8]; [19]
  Plant response rating, Velvetleaf: 10
Barnyardgrass [9]; [18]
  Plant response rating, Barnyardgrass: 10
Barnyardgrass [9]; [19]
  Plant response rating, Barnyardgrass: 30
Corn [10]; [18]
  Plant response rating, Corn: 0
Corn [10]; [20]
  Corn plant response rating: 0
Velvetleaf [11]; [18]
  Plant response rating, Velvetleaf: 0
Giant foxtail [12]; [18]
  Plant response rating, Foxtail, Giant: 10
Giant foxtail [12]; [21]
  Foxtail, Giant plant response rating: 60
Large (Lg) crabgrass [13]; [18]
  Plant response rating, Crabgrass, Large: 30
Large (Lg) crabgrass [13]; [20]
  Crabgrass, Large plant response rating: 90
sedge, umbrella
  Plant response rating, Sedge, Umbrella: 0
Barnyardgrass [14]
  Plant response rating, Barnyardgrass: 0
Morningglory [15]; [18]
  Plant response rating, Morningglory: 0
Morningglory [15]; [21]
  Morningglory plant response rating: 0
Morningglory [16]; [18]
  Plant response rating, Morningglory: 0
Morningglory [16]; [19]
  Plant response rating, Morningglory: 10
Wheat [17]; [18]
  Plant response rating, Wheat: 0
Wheat [17]; [19]
  Plant response rating, Wheat: 0

## N#Cc1cccc(Oc2ncc(Br)cn2)c1-n1cccn1 [Compound 165]
Corn [1]; [18]
  Corn plant response rating: 0
Corn [1]; [19]
  Plant response rating, Corn: 0
Barnyardgrass [2]; [18]
  Plant response rating, Barnyardgrass: 0
Barnyardgrass [2]; [22]
  Barnyardgrass plant response rating: 20
Heteranthera limosa
  Plant response rating, Ducksalad: 0
Large (Lg) crabgrass [3]; [18]
  Crabgrass, Large plant response rating: 0
Large (Lg) crabgrass [3]; [19]
  Plant response rating, Crabgrass, Large: 10
Giant foxtail [4]; [18]
  Foxtail, Giant plant response rating: 10
Giant foxtail [4]; [19]
  Plant response rating, Foxtail, Giant: 20
rice
  Plant response rating, Rice: 0
Pigweed [5]; [18]
  Pigweed plant response rating: 30
Pigweed [5]; [19]
  Plant response rating, Pigweed: 80
Wheat [6]; 125 g ai/ha
  Wheat plant response rating (0 to 100 scale): 0
Wheat [6]; [19]
  Wheat plant response rating: 0
Pigweed [7]; 125 g ai/ha
  Pigweed plant response rating (0 to 100 scale): 60
Pigweed [7]; [19]
  Pigweed plant response rating: 90
Velvetleaf [8]; [18]
  Velvetleaf plant response rating: 10
Velvetleaf [8]; [19]
  Plant response rating, Velvetleaf: 30
Barnyardgrass [9]; [18]
  Barnyardgrass plant response rating: 0
Barnyardgrass [9]; [19]
  Plant response rating, Barnyardgrass: 0
Corn [10]; [18]
  Plant response rating, Corn: 0
Corn [10]; [22]
  Corn plant response rating: 0
Velvetleaf [11]; 125 g ai/ha
  Velvetleaf plant response rating (0 to 100 scale): 10
Velvetleaf [11]; [19]
  Velvetleaf plant response rating: 20
Giant foxtail [12]; [18]
  Plant response rating, Foxtail, Giant: 20
Giant foxtail [12]; [19]
  Foxtail, Giant plant response rating: 90
Large (Lg) crabgrass [13]; [18]
  Plant response rating, Crabgrass, Large: 50
Large (Lg) crabgrass [13]; [22]
  Crabgrass, Large plant response rating: 90
sedge, umbrella
  Plant response rating, Sedge, Umbrella: 0
Barnyardgrass [14]
  Plant response rating, Barnyardgrass: 0
Morningglory [15]; 125 g ai/ha
  Morningglory plant response rating (0 to 100 scale): 0
Morningglory [16]; [18]
  Morningglory plant response rating: 10
Morningglory [16]; [19]
  Plant response rating, Morningglory: 20
Wheat [17]; [18]
  Wheat plant response rating: 0
Wheat [17]; [19]
  Plant response rating, Wheat: 0

## N#Cc1cccc(Oc2ncc(Cl)cn2)c1-n1cc([N+](=O)[O-])cn1 [Compound 304]
Corn [1]; [23]
  Plant response rating, Corn: 0
Corn [1]; [19]
  Plant response rating, Corn: 0
Barnyardgrass [2]; 125 g ai/ha
  Barnyardgrass plant response rating (0 to 100 scale, 0 is no effect, 100 is complete control): 0
Barnyardgrass [2]; [22]
  Barnyardgrass plant response rating: 0
Heteranthera limosa
  Plant response rating, Ducksalad: 0
Large (Lg) crabgrass [3]; [23]
  Plant response rating, Crabgrass, Large: 0
Large (Lg) crabgrass [3]; [19]
  Plant response rating, Crabgrass, Large: 0
Giant foxtail [4]; [23]
  Plant response rating, Foxtail, Giant: 0
Giant foxtail [4]; [19]
  Plant response rating, Foxtail, Giant: 0
rice
  Plant response rating, Rice: 0
Pigweed [5]; [23]
  Plant response rating, Pigweed: 30
Pigweed [5]; [19]
  Plant response rating, Pigweed: 50
Wheat [6]; 125 g ai/ha
  Wheat plant response rating (0 to 100 scale): 0
Wheat [6]; [19]
  Wheat plant response rating: 0
Pigweed [7]; 125 g ai/ha
  Pigweed plant response rating (0 to 100 scale): 0
Pigweed [7]; [19]
  Pigweed plant response rating: 0
Velvetleaf [8]; [23]
  Plant response rating, Velvetleaf: 0
Velvetleaf [8]; [19]
  Plant response rating, Velvetleaf: 0
Barnyardgrass [9]; [23]
  Plant response rating, Barnyardgrass: 0
Barnyardgrass [9]; [19]
  Plant response rating, Barnyardgrass: 0
Corn [10]; 125 g ai/ha
  Corn plant response rating (0 to 100 scale): 0
Corn [10]; [22]
  Corn plant response rating: 0
Velvetleaf [11]; 125 g ai/ha
  Velvetleaf plant response rating (0 to 100 scale): 0
Velvetleaf [11]; [19]
  Velvetleaf plant response rating: 0
Giant foxtail [12]; 125 g ai/ha
  Foxtail, Giant plant response rating (0 to 100 scale): 0
Giant foxtail [12]; [19]
  Foxtail, Giant plant response rating: 0
Large (Lg) crabgrass [13]; 125 g ai/ha
  Crabgrass, Large plant response rating (0 to 100 scale): 0
Large (Lg) crabgrass [13]; [22]
  Crabgrass, Large plant response rating: 10
sedge, umbrella
  Plant response rating, Sedge, Umbrella: 0
Barnyardgrass [14]
  Plant response rating, Barnyardgrass: 0
Morningglory [15]; 125 g ai/ha
  Morningglory plant response rating (0 to 100 scale): 0
Morningglory [15]; [19]
  Morningglory plant response rating: 0
Morningglory [16]; [23]
  Plant response rating, Morningglory: 0
Morningglory [16]; [19]
  Plant response rating, Morningglory: 0
Wheat [17]; [23]
  Plant response rating, Wheat: 0
Wheat [17]; [19]
  Plant response rating, Wheat: 0

## Brc1cnc(Oc2ccccc2-n2cccn2)nc1 [Compound 13]
Corn [1]; [24]
  Plant response rating, Corn: 40
Barnyardgrass [2]; [24]
  Plant response rating, Barnyardgrass: 80
Heteranthera limosa
  Plant response rating, Ducksalad: 30
Large (Lg) crabgrass [3]; [24]
  Plant response rating, Crabgrass, Large: 90
Giant foxtail [4]; [24]
  Plant response rating, Foxtail, Giant: 100
rice
  Plant response rating, Rice: 0
Pigweed [5]; [24]
  Plant response rating, Pigweed: 100
Wheat [6]; [25]
  Wheat plant response rating: 20
Pigweed [7]; [25]
  Pigweed plant response rating: 100
Velvetleaf [8]; [24]
  Plant response rating, Velvetleaf: 100
Barnyardgrass [9]; [24]
  Plant response rating, Barnyardgrass: 90
Corn [10]; [24]
  Plant response rating, Corn: 0
Velvetleaf [11]; [25]
  Velvetleaf plant response rating: 100
Giant foxtail [12]; [25]
  Foxtail, Giant plant response rating: 100
Large (Lg) crabgrass [13]; [24]
  Plant response rating, Crabgrass, Large: 100
sedge, umbrella
  Plant response rating, Sedge, Umbrella: 0
Barnyardgrass [14]
  Plant response rating, Barnyardgrass: 0
Morningglory [15]; [25]
  Morningglory plant response rating: 0
Morningglory [16]; [24]
  Plant response rating, Morningglory: 90
Wheat [17]; [24]
  Plant response rating, Wheat: 60
